How the values were obtained:
[1] = molecular target: T1, CYP3A4 (Homo sapiens, UniProt P08684); experiment: Inhibition of testosterone metabolite site of CYP3A4 in human liver microsome; type: in vitro ADME
T1 construct: CYP3A4 in human liver microsome; tissue Corning Gentest; host or cells: human liver microsomes
Method: The effect of the compound represented by formula (I) on the enzyme activity of testosterone metabolite site of CYP3A4 in human liver microsome was determined by the following experimental method:
100 mM PBS buffer was formulated, which was then used to formulate 2.5 mg/mL microsome solution and 5 mM NADPH solution. The 5× concentration of the compound working solution was diluted with PBS gradient (150, 50, 15, 5, 1.5, 0.15, 0.015, 0 μM). The 5× concentration of ketoconazole working solution was diluted with PBS gradient (150, 50, 15, 5, 1.5, 0.15, 0.015, 0 μM). […] working solution was diluted with PBS to a concentration of 50 μM.
20 μL of the 2.5 mg/mL microsome solution, 20 μL of the 50 μM […] working solution, 20 μL of MgCl2 solution and 20 μL of the compound working solution (150, 50, 15, 5, 1.5, 0.15, 0.015, 0 μM, different reaction systems for each concentration) were taken respectively and mixed well. For the positive control group, the compound was replaced with the same concentration of ketoconazole. The mixture together with the 5 mM NADPH solution was pre-incubated at 37° C. for 5 minutes. […] 80 μL of the supernatant was taken and analyzed by LC-MS/MS.
The data was calculated by Graphpad Prism to obtain the IC50 value of the compound on the testosterone metabolite site of CYP3A4.

[2] = molecular target: T2, human TLR7 (Homo sapiens, UniProt Q9NYK1); experiment: Agonistic effect on human TLR7 (HEK-Blue hTLR7 cells); type: cell-based
T2 construct: host or cells: HEK-Blue hTLR7 (HEK293-derived) stably transfected cells
T2 sequence (Q9NYK1 27-1049): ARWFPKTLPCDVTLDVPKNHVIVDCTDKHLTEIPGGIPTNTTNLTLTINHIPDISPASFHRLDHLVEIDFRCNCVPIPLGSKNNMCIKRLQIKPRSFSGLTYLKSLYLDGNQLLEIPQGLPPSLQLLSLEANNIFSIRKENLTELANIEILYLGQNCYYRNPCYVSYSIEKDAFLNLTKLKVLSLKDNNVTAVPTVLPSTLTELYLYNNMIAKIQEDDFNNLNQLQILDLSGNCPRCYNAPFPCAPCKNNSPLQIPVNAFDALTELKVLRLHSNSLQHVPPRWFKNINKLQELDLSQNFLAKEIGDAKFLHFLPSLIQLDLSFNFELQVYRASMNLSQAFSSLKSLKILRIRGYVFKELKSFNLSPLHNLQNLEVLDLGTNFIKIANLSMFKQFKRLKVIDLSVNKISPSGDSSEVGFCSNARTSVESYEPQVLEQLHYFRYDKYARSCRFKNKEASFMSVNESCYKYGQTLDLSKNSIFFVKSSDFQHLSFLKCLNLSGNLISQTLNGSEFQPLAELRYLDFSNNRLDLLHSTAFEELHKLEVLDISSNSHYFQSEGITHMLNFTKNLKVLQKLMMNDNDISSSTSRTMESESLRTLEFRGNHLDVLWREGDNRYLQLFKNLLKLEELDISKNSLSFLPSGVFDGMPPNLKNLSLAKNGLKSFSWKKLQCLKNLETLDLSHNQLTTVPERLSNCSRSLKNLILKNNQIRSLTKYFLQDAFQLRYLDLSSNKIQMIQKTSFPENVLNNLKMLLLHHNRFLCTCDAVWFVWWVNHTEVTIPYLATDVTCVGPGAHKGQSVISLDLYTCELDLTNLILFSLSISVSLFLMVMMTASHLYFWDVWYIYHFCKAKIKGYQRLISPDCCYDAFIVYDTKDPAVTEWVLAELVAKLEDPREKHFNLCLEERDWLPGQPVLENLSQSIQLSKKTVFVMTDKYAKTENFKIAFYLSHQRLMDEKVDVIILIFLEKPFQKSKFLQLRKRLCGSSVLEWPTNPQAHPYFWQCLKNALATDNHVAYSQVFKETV
Method: The agonistic effect of the compound represented by formula (I) on the hTLR7 protein expressed in HEK-Blue™ hTLR7 stably transfected cells was determined by the following experimental method:
A bag of HEK-Blue detection dry powder was dissolved in 50 mL of water free of endotoxin, and the solution was then placed in an incubator at 37° C. for 10 minutes followed by sterile filtration to prepare a HEK-Blue detection medium. The compound was firstly formulated into a 20 mM stock solution, then diluted with pure DMSO to a maximum concentration of 6×10^6 nM, and a total of 10 points were obtained by a 3-fold gradient dilution.
The above formulated compound was firstly diluted 20-fold with the medium, then 20 μL of the diluted compound was added to each well. The supernatant was removed from the HEK-Blue™ hTLR7 cells, to which 2-5 mL of pre-warmed PBS was then added. The cells were placed in an incubator for 1-2 minutes, gently pipetted, and counted by trypan blue staining. The cells were re-suspended in the HEK-Blue detection medium, and the concentration was adjusted to 2.2×10^5 cells/mL. […]
The plate was read with a microplate reader at a wavelength of 620 nm. The corresponding OD values were obtained, and the EC50 value of the compound was calculated by Graphpad Prism.

T1 sequence (P08684 whole entry): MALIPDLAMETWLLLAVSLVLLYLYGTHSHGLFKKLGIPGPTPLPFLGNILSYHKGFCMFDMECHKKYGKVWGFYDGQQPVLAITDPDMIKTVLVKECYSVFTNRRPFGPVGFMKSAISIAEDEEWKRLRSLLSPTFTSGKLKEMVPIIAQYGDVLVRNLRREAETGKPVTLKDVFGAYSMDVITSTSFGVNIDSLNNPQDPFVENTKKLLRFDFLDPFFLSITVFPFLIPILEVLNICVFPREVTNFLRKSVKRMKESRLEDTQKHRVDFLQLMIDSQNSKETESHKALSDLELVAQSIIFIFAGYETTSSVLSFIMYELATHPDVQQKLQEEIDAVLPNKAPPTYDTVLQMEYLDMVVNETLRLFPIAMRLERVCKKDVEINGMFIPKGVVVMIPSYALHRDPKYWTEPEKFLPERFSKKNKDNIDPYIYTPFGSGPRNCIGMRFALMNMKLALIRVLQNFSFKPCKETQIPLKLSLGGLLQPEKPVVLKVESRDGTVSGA

CCCCOc1nc(N)c2cnn(Cc3ccc(CN4CCCC4)cc3)c2n1 [compound represented by formula (I), 6-Butoxy-1-(4-(pyrrolidin-1-ylmethyl)benzyl)-1H-pyrazolo[3,4-d]pyrimidin-4-amine]
inhibitory effect on testosterone metabolite site of CYP3A4 (in words) [1]: weak inhibitory effect
IC50 ([1]; testosterone probe): 4000 nM
agonistic effect on human TLR7 (in words) ([2]; HEK-Blue hTLR7 cells): significant agonistic effect
EC50 ([2]; HEK-Blue hTLR7 stably transfected cells): 28 nM

— US20210188856A1, “CRYSTAL FORM OF HYDROCHLORIDE OF PYRAZOLOHETEROARYL DERIVATIVE AND PREPARATION METHOD” (JIANGSU HENGRUI MEDICINE CO., LTD., priority 2018, published 2021)
